How the values were obtained:
[1] = biological target: T1, 5-hydroxytryptamine receptor 2A (Rattus norvegicus, UniProt P14842); assay: (§1) Activity against 5HT2A mediated intracellular calcium mobilization by FLIPR in rat vascular smooth muscle cells; assay type: functional, cell-based
[2] = biological target: 5-hydroxytryptamine receptor 2A (Rattus norvegicus) (UniProt P14842); assay: as §1; assay type: functional, cell-based
[3] = Distribution coefficient at pH 7.4; assay type: physicochemical; details: octanol/water
[4] = biological target: 5-hydroxytryptamine receptor 2B (Rattus norvegicus, UniProt P30994); assay: Activity against 5HT2B receptor in longitudinal stomach fundus strips in wistar rats
5-hydroxytryptamine receptor 2B (Rattus norvegicus, UniProt P30994), sequence (P30994 whole entry): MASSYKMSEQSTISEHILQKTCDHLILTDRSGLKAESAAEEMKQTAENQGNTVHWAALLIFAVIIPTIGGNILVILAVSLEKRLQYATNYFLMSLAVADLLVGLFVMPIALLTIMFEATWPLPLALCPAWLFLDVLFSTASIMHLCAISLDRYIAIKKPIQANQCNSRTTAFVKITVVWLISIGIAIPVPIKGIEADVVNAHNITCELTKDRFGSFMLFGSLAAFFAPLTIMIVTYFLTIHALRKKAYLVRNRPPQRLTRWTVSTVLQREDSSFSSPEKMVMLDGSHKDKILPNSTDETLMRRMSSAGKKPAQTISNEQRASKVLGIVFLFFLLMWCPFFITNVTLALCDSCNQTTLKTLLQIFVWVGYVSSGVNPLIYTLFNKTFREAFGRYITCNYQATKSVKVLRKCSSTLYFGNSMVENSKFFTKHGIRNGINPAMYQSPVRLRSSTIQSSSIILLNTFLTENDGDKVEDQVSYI

MDR1 (P-gp) [5] = assay: Permeability from apical to basolateral side of the MDCK cell transfected with human MDR1; assay type: ADME, cell-based
MDR1 (P-gp) [6] = assay: Permeability from basolateral to apical side of the MDCK cell transfected with human MDR1; assay type: ADME, cell-based
[7] = biological target: T1, 5-hydroxytryptamine receptor 2A; assay type: tissue-based, Cerebral cortex
[8] = biological target: T2, 5-hydroxytryptamine receptor 2C (Rattus norvegicus, UniProt P08909); assay: Activity against recombinant rat 5HT2C mediated intracellular calcium mobilization by FLIPR in SR3T3 cells
T2 sequence (P08909 whole entry): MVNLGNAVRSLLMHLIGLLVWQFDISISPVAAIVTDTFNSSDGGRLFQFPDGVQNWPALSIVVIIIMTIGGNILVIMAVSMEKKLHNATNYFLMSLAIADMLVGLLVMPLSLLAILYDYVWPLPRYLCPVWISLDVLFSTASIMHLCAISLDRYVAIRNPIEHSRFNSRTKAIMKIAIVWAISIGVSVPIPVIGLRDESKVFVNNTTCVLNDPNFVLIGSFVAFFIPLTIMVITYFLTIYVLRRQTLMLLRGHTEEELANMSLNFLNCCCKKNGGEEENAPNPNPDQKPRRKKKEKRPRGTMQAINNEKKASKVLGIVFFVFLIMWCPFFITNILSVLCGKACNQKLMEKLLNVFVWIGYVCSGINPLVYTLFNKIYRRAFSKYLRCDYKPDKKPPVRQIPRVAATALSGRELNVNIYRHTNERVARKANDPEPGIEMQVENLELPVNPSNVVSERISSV

MDR1 (P-gp) [9] = assay: in vitro; details: human, MDCK-MDR1
Description: Ratio of permeability from basolateral to apical over apical to basolateral side of the MDCK cell transfected with human MDR1

[10] = biological target: T3, 5-hydroxytryptamine receptor 2C (Rattus norvegicus) (UniProt P08909); assay: Activity against recombinant rat 5HT2C mediated intracellular calcium mobilization by FLIPR in SR3T3 cells
T3 sequence (whole entry): T2 sequence (P08909 whole entry)

[11] = biological target: T4, 5-hydroxytryptamine receptor 2C (Homo sapiens, UniProt P28335); assay: biochemical
T4 sequence (P28335 whole entry): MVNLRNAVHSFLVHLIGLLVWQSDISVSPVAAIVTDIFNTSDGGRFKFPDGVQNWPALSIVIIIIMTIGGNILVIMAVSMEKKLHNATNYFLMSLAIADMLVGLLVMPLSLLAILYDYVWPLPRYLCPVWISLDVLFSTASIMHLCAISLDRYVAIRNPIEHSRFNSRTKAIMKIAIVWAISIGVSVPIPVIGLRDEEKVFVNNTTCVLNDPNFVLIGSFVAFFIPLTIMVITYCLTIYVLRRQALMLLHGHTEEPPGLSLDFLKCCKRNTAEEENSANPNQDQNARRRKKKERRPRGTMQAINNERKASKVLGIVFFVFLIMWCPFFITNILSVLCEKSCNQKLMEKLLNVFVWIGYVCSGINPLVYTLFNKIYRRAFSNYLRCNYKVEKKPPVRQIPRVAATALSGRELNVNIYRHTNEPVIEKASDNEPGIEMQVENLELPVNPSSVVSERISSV
Description: Displacement of [125I]DOI from cloned human 5HT2C receptor expressed in CHO cells

[12] = biological target: 5-hydroxytryptamine receptor 2A (Homo sapiens, UniProt P28223); assay type: cell-based, CHO
5-hydroxytryptamine receptor 2A (Homo sapiens, UniProt P28223), sequence (P28223 whole entry): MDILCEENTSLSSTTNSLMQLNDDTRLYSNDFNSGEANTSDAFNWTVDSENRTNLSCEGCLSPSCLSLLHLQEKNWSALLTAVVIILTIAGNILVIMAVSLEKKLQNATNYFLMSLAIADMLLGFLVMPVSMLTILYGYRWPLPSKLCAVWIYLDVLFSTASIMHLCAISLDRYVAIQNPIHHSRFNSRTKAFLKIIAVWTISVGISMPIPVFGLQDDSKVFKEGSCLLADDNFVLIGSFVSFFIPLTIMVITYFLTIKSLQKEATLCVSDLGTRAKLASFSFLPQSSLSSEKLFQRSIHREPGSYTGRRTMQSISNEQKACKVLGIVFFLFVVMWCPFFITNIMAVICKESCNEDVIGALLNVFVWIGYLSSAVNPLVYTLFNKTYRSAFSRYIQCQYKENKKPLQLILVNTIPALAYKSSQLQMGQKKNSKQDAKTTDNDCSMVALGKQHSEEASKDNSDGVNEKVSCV

[13] = biological target: 5-hydroxytryptamine receptor 2B (Homo sapiens, UniProt P41595); assay: biochemical
5-hydroxytryptamine receptor 2B (Homo sapiens, UniProt P41595), sequence (P41595 whole entry): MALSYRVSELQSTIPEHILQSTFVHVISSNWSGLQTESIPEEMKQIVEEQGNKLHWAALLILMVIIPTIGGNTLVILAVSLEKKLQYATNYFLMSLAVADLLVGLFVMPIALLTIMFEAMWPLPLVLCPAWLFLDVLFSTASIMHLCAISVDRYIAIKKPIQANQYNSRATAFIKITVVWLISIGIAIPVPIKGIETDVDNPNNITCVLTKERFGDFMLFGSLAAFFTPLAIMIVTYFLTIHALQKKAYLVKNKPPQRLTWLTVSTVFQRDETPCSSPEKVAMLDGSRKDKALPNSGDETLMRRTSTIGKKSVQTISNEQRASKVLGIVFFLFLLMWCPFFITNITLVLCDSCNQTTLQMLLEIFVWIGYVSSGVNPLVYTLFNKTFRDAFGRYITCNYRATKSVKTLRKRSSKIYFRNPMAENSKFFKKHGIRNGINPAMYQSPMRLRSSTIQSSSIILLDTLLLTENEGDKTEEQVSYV
Description: Displacement of [125I]DOI from cloned human 5HT2B receptor expressed in CHO cells

[14] = Half life in phosphate buffer at pH 7.4 in 25 degC; assay type: ADME
[15] = Half life in phosphate buffer at pH 7.4 in 45 degC; assay type: ADME
[16] = biological target: 5-hydroxytryptamine receptor 7 (Homo sapiens, UniProt P34969); assay: Activity at 5HT7 receptor expressed in human corneal epithelial CEPI-17-CL4 cells by adenylyl cyclase assay; assay type: functional, cell-based, Cornea
5-hydroxytryptamine receptor 7, sequence (P34969 whole entry): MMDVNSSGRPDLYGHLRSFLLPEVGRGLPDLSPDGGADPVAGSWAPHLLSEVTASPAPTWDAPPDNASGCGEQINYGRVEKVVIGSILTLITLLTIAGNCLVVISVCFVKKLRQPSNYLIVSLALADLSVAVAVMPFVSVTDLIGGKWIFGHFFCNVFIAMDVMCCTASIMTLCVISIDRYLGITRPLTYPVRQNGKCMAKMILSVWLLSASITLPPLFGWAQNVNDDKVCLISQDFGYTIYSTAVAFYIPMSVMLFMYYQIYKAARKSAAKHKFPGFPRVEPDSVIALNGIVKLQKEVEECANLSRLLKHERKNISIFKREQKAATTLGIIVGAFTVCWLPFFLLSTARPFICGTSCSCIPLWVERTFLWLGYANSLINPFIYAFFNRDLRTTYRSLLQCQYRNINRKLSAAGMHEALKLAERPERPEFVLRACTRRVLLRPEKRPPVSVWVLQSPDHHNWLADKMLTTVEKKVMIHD

[17] = biological target: T5, Alpha-2A adrenergic receptor (Homo sapiens, UniProt P08913); assay: Activity at adrenergic alpha2A receptor expressed in human clonic adenocarcinoma HT29 cell by […]; assay type: functional, cell-based, HT-29
T5 sequence (P08913 whole entry): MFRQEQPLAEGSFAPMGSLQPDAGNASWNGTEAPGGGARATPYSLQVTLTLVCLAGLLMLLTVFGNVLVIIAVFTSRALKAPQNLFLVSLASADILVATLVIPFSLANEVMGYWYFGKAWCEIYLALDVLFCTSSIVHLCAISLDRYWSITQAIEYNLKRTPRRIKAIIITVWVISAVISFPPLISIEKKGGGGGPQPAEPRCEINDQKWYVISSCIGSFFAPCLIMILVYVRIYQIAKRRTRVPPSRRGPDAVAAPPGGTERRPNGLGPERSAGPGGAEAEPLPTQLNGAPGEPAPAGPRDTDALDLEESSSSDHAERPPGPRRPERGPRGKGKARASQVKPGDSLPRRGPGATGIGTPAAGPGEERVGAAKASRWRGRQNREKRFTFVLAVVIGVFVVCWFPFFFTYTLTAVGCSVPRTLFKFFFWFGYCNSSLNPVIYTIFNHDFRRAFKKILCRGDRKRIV

[18] = biological target: T6, 5-hydroxytryptamine receptor 1A (Homo sapiens, UniProt P08908); assay: Agonistic activity at cloned human 5HT1A receptor expressed in CHO cells by inhibition of forskolin-induced cAMP production; assay type: functional, cell-based
T6 sequence (P08908 whole entry): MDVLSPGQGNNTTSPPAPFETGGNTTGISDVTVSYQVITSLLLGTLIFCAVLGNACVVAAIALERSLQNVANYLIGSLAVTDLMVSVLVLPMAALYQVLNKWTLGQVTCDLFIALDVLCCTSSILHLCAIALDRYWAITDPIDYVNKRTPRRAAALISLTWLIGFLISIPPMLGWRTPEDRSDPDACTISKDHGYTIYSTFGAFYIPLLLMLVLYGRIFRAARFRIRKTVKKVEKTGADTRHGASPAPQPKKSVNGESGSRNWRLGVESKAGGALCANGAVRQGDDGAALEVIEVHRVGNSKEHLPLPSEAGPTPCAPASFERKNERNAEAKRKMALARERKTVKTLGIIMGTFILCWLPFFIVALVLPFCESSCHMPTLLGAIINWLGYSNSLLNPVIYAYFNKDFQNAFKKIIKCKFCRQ

[19] = biological target: T5, Alpha-2A adrenergic receptor; assay: Activity at adrenergic alpha-2A receptor expressed in human clonic adenocarcinoma HT29 cell by adenylyl cyclase assay; assay type: functional, cell-based, HT-29
[20] = biological target: T7, Alpha-2C adrenergic receptor (Homo sapiens, UniProt P18825); assay: Activity at adrenergic Alpha-2C receptor expressed in rat-mouse hybrid […] cell by adenylyl cyclase assay; assay type: functional, cell-based
T7 sequence (P18825 whole entry): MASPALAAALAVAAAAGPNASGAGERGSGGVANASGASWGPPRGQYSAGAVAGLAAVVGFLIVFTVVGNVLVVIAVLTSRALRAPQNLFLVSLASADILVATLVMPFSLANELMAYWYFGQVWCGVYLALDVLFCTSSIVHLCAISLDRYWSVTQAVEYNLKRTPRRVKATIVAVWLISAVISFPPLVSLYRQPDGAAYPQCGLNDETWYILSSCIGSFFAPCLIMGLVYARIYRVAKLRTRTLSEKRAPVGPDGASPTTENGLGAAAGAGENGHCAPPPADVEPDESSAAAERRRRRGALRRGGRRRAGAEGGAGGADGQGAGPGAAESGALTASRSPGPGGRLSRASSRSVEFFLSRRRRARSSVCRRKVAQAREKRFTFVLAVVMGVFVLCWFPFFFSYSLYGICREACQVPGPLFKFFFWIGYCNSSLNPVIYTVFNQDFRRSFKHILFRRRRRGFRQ

[21] = biological target: Alpha-2B adrenergic receptor (Homo sapiens, UniProt P18089); assay: Activity at adrenergic alpha-2B receptor expressed in opposum kidney OK cell by adenylyl cyclase assay; assay type: functional, cell-based
Alpha-2B adrenergic receptor, sequence (P18089 whole entry): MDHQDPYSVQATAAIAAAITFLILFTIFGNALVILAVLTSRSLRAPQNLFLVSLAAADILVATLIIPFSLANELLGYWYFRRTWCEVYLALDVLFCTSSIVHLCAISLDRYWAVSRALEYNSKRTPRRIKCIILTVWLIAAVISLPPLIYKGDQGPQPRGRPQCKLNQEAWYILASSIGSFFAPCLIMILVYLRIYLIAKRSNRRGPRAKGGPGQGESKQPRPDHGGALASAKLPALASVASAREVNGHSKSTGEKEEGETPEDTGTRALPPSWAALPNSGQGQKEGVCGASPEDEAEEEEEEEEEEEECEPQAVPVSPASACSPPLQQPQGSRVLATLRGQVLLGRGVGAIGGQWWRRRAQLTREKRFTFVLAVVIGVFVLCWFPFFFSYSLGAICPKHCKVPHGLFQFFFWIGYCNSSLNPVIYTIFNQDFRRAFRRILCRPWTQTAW

T1 sequence (P14842 whole entry): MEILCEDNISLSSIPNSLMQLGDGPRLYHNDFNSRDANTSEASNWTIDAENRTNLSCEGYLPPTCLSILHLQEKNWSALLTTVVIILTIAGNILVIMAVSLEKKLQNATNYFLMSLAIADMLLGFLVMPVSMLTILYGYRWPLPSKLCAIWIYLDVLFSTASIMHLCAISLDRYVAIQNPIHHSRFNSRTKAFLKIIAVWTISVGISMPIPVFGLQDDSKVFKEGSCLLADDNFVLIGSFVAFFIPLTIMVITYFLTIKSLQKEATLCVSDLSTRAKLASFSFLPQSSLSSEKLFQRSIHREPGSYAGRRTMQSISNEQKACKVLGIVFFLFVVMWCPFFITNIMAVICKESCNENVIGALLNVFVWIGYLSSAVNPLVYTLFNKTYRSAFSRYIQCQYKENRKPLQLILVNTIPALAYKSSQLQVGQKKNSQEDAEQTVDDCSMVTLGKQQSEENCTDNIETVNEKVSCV
5-hydroxytryptamine receptor 2A (Rattus norvegicus), sequence (P14842 whole entry): as above

SMILES: COc1cc(C[C@@H](C)N)c(OC)cc1I
- EC50 [1]: 19.8 nM
- Emax [2]: 35%
- logD [3]: 2.72
- EC50 [4]: 11.9 nM
- Papp A→B (MDR1 (P-gp) [5]): 12.6 ×10⁻⁶ cm/s
- Papp B→A (MDR1 (P-gp) [6]): 23.2 ×10⁻⁶ cm/s
- IC50 [7]: 0.21 nM
- EC50 [8]: 30.2 nM

SMILES: C[C@H](N)Cn1ncc2ccc(O)c(Cl)c21
- efflux ratio (MDR1 (P-gp) [9]): 3
- EC50 [1]: 59.7 nM
- Emax [2]: 87%
- Emax [10]: 104%
- logD [3]: 1.09
- EC50 [4]: 5.9 nM
- Papp A→B (MDR1 (P-gp) [5]): 1.65 ×10⁻⁶ cm/s
- Ki [11]: 1.2 nM
- Papp B→A (MDR1 (P-gp) [6]): 4.94 ×10⁻⁶ cm/s
- IC50 [7]: 0.54 nM
- EC50 [8]: 4.9 nM
- Ki [12]: 12 nM
- Ki [13]: 3.8 nM
- T1/2 [14]: 4 yr

SMILES: C[C@H](N)Cn1ncc2ccc(O)c(I)c21
- EC50 [1]: 204 nM
- Emax [2]: 73%
- logD [3]: 3
- Papp A→B (MDR1 (P-gp) [5]): 1.22 ×10⁻⁶ cm/s
- Ki [11]: 4.8 nM
- Papp B→A (MDR1 (P-gp) [6]): 3.46 ×10⁻⁶ cm/s
- IC50 [7]: 1.68 nM
- Ki [12]: 21 nM
- Ki [13]: 6 nM

SMILES: NCCc1c[nH]c2ccc(O)cc12 [SEROTONIN]
- Emax [2]: 99%
- Emax [10]: 94%
- T1/2 [15]: 0.03 yr

SMILES: COc1ccc2[nH]cc(CCN(C)C)c2c1 [MEBUFOTENIN]
- EC50 [1]: 462 nM
- Emax [2]: 70%
- Emax [10]: 89%
- logD [3]: 3.3
- Papp A→B (MDR1 (P-gp) [5]): 16.1 ×10⁻⁶ cm/s
- Papp B→A (MDR1 (P-gp) [6]): 14.4 ×10⁻⁶ cm/s
- IC50 [7]: 9.53 nM

SMILES: CC(N)Cc1c[nH]c2ccc(O)cc12 (configuration not stated)
- Emax [2]: 96%
- Emax [10]: 100%
- T1/2 [15]: 0.071 yr

SMILES: C[C@@H](N)Cn1ncc2ccc(O)cc21
- EC50 [1]: 236 nM
- Emax [2]: 61%
- EC50 [16]: > 10000 nM
- Emax [10]: 97%
- EC50 [17]: 1990 nM
- EC50 [4]: 85 nM
- Ki [11]: 34 nM
- EC50 [18]: 2890 nM
- EC50 [19]: > 10000 nM
- IC50 [7]: 2.08 nM
- EC50 [20]: 5660 nM
- EC50 [8]: 87.3 nM
- Ki [12]: 105 nM
- Ki [13]: 35 nM
- EC50 [21]: 4710 nM

SMILES: COc1ccc2cnn(C[C@H](C)N)c2c1
- EC50 [1]: 54 nM
- Emax [2]: 90%
- Emax [10]: 103%
- logD [3]: 2.08
- EC50 [4]: 4.2 nM
- Papp A→B (MDR1 (P-gp) [5]): 14.1 ×10⁻⁶ cm/s
- Ki [11]: 1.5 nM
- Papp B→A (MDR1 (P-gp) [6]): 19.5 ×10⁻⁶ cm/s
- IC50 [7]: 1.91 nM
- EC50 [8]: 6.7 nM
- Ki [12]: 16 nM
- Ki [13]: 7.5 nM

SMILES: C[C@H](N)Cn1ncc2ccc(O)c(F)c21
- efflux ratio (MDR1 (P-gp) [9]): 1.5
- EC50 [1]: 58.1 nM
- Emax [2]: 80%
- Emax [10]: 100%
- logD [3]: 0.394
- EC50 [4]: 6.1 nM
- Papp A→B (MDR1 (P-gp) [5]): 1.11 ×10⁻⁶ cm/s
- Ki [11]: 1 nM
- Papp B→A (MDR1 (P-gp) [6]): 1.66 ×10⁻⁶ cm/s
- IC50 [7]: 0.73 nM
- EC50 [8]: 5.5 nM
- Ki [12]: 5.8 nM
- Ki [13]: 1.7 nM
- T1/2 [14]: 1.4 yr

SMILES: COc1ccc2[nH]cc(CC(C)N)c2c1 (configuration not stated)
- EC50 [1]: 47.5 nM
- Emax [2]: 96%
- Emax [10]: 103%
- EC50 [4]: 2.7 nM
- IC50 [7]: 2 nM
- EC50 [8]: 3.1 nM

SMILES: NCCn1ncc2ccc(O)cc21
- EC50 [1]: 74.4 nM
- Emax [2]: 75%
- Emax [10]: 104%
- logD [3]: 0.254
- EC50 [4]: 8.6 nM
- Papp A→B (MDR1 (P-gp) [5]): 0.64 ×10⁻⁶ cm/s
- Ki [11]: 9.6 nM
- Papp B→A (MDR1 (P-gp) [6]): 0.6 ×10⁻⁶ cm/s
- IC50 [7]: 0.77 nM
- EC50 [8]: 4.5 nM
- Ki [12]: 20 nM
- Ki [13]: 15 nM
- T1/2 [14]: 3.7 yr

SMILES: Cc1c(O)ccc2cnn(C[C@H](C)N)c12
- EC50 [1]: 81.3 nM
- Emax [2]: 89%
- Emax [10]: 91%
- logD [3]: 1.28
- EC50 [4]: 8.9 nM
- Papp A→B (MDR1 (P-gp) [5]): 2.49 ×10⁻⁶ cm/s
- Ki [11]: 3.6 nM
- Papp B→A (MDR1 (P-gp) [6]): 3.12 ×10⁻⁶ cm/s
- IC50 [7]: 0.74 nM
- EC50 [8]: 7.3 nM
- Ki [12]: 1.8 nM
- Ki [13]: 8.7 nM
- T1/2 [14]: 0.73 yr
